Reference: ChEMBL document CHEMBL3351457, “Design and synthesis of 8-hydroxyquinoline-based radioprotective agents” (Bioorg Med Chem, 2014)
Calls of active or inactive are those of the source. The calls are words filed in the database; no cut-off is given here.

Columns and labels:
MOLT-4 [1] = assay: Radioprotective activity against gamma-irradiated human MOLT4 cells preincubated for 1 hr at 100 to 400 uM before gamma-irradiation measured after 18 hrs by erythrosine B dye-exclusion test; assay type: functional, cell-based
MOLT-4 [2] = assay: Radioprotective activity against gamma-irradiated human MOLT4 cells preincubated for 1 hr at <50 uM before gamma-irradiation measured after 18 hrs by erythrosine B dye-exclusion test; assay type: functional, cell-based
MOLT-4 [3] = assay: Inhibition of apoptosis in gamma-irradiated human MOLT4 cells preincubated for 1 hr at 100 to 400 uM before gamma-irradiation measured after 18 hrs by erythrosine B dye-exclusion test; assay type: functional, cell-based
MOLT-4 [4] = assay: Cytotoxicity against human MOLT4 cells at 100 to 400 uM after 18 hrs by erythrosine B dye-exclusion test; assay type: cell-based; conditions: molt-4, 18 h
MOLT-4 [5] = assay: Cytotoxicity against human MOLT4 cells at 200 to 300 uM after 18 hrs by erythrosine B dye-exclusion test; assay type: cell-based; conditions: molt-4, 18 h
[6] = Stability of the compound assessed as hydrolysis at 37 degC after 18 hrs; assay type: physicochemical
[7] = molecular target: Cellular tumor antigen p53 (Homo sapiens) (UniProt P04637); assay: Inhibition of recombinant FLAG-p53 (unknown origin) binding to FITC-labeled double-stranded oligonucleotide measured after 3 hrs by EMSA in presence of zinc(II) chelators
Jurkat [8] = assay: Cytotoxicity against p53-inactive human Jurkat cells at after 18 hrs by erythrosine B dye-exclusion test; assay type: cell-based
[9] = Antioxidant activity assessed as DPPH free radical scavenging activity by UV-vis spectrophotometry; assay type: physicochemical
Jurkat [10] = assay: Radioprotective activity against gamma-irradiated p53-inactive human Jurkat cells at after 18 hrs by erythrosine B dye-exclusion test; assay type: functional, cell-based
MOLT-4 [11] = assay: Inhibition of apoptosis in gamma-irradiated human MOLT4 cells compound treated at 100 to 400 uM for 3 hrs post gamma-irradiation after 18 hrs by erythrosine B dye-exclusion test; assay type: functional, cell-based
[12] = molecular target: Cellular tumor antigen p53 (Homo sapiens) (UniProt P04637); assay: Binding affinity to recombinant FLAG-p53 (unknown origin) assessed as confirmational change measured after 12 hrs by CD spectroscopy in presence of zinc(II) chelators
MOLT-4 [13] = assay: Radioprotective activity against gamma-irradiated human MOLT4 cells preincubated for 1 hr before gamma-irradiation measured after 18 hrs by erythrosine B dye-exclusion test; assay type: functional, cell-based

Cellular tumor antigen p53 (Homo sapiens), sequence (P04637 whole entry, looked up): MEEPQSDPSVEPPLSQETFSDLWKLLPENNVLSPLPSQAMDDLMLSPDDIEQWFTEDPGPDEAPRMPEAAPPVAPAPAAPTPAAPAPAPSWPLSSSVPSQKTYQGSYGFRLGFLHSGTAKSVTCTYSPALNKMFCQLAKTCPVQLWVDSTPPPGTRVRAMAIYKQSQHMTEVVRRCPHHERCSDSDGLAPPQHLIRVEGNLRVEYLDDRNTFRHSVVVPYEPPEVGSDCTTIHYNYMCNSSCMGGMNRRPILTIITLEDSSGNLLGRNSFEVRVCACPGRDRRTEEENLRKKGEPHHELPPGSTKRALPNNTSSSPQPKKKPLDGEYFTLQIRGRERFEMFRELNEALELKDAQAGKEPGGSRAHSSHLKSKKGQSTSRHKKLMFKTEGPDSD

Which Activity (MOLT-4 [1]) does the source give for Cc1ccc2cccc(O)c2n1 here?
Its Activity is “Active”.

For Cc1ccc2c(S(=O)(=O)NCCN)cc(S(=O)(=O)NCCN)c(O)c2n1, which Activity (MOLT-4 [1]) is on record?
The Activity was “inactive”.

Which Activity (MOLT-4 [2]) does the source give for O=C1O[C@H]([C@@H](O)CO)C(O)=C1O here?
Its Activity is “Active”.

Which “apoptosis inhibition (active/inactive)” value (MOLT-4 [3]) does the source give for COc1ccc(S(=O)(=O)N(C)C)c2ccc(C)nc12 here?
Its value is “Active”.

What about the Activity (MOLT-4 [4]) of the same molecule?
The Activity was “Non-toxic”.

For COc1c(I)cc(S(=O)(=O)N(C)C)c2ccc(C)nc12, which “apoptosis inhibition (active/inactive)” value (MOLT-4 [3]) is on record?
The value was “Active”.

And the Activity (MOLT-4 [4])?
Its Activity is “Toxic”.

For CCN(CC)S(=O)(=O)c1cc(S(=O)(=O)N(CC)CC)c2ccc(C)nc2c1O, which Activity (MOLT-4 [4]) is on record?
Its Activity is “Toxic”.

For c1ccc2cnccc2c1, which Activity (MOLT-4 [1]) is on record?
The Activity was “inactive”.

For Cc1ccc2c(S(=O)(=O)N(C)C)cc(S(=O)(=O)N(C)C)c(O)c2n1, which Activity (MOLT-4 [4]) is on record?
Its Activity is “Toxic”.

With Oc1cccc2cccnc12 [OXYQUINOLINE] as the molecule, how does the Activity (MOLT-4 [4]) read?
Its Activity is “Toxic”.

What about the Activity (MOLT-4 [2]) of the same molecule?
The Activity was “Active”.

Which Activity (MOLT-4 [1]) does the source give for Cc1ccc2c(S(=O)(=O)N3CCNCC3)cc(S(=O)(=O)N3CCNCC3)c(O)c2n1 here?
The Activity was “Active”.

Which Activity (MOLT-4 [1]) does the source give for CN(C)S(=O)(=O)c1ccc2c(S(=O)(=O)N(C)C)cc(S(=O)(=O)N(C)C)c(O)c2c1 here?
The Activity was “inactive”.

Which Activity (MOLT-4 [1]) does the source give for Cc1ccc2c(S(N)(=O)=O)cc(S(N)(=O)=O)c(O)c2n1 here?
Its Activity is “inactive”.

For CCOc1c(S(=O)(=O)N(CC)CC)cc(S(=O)(=O)N(CC)CC)c2ccc(C)nc12, which Activity (MOLT-4 [4]) is on record?
Its Activity is “Toxic”.

Which “apoptosis inhibition (active/inactive)” value (MOLT-4 [3]) does the source give for CNS(=O)(=O)c1ccc(OC)c2nc(C)ccc12 here?
Its value is “Active”.

And the Activity (MOLT-4 [4])?
Its Activity is “Non-toxic”.

For Cc1ccc2c(S(=O)(=O)N3CCCNCC3)cc(S(=O)(=O)N3CCCNCC3)c(O)c2n1, which Activity (MOLT-4 [1]) is on record?
The Activity was “Active”.

Which Activity (MOLT-4 [1]) does the source give for Oc1cccc2ccccc12 here?
Its Activity is “inactive”.

Which Activity (MOLT-4 [5]) does the source give for CNS(=O)(=O)c1cc(S(=O)(=O)NC)c2ccc(C)nc2c1OS(C)(=O)=O here?
The Activity was “Toxic”.

What about the Stability [6] of the same molecule?
Its Stability is “Unstable”.

With CN(C)S(=O)(=O)c1ccc(O)c2ncccc12 as the molecule, how does the Activity (MOLT-4 [1]) read?
Its Activity is “Active”.

Which Activity (MOLT-4 [2]) does the source give for COc1cc(/C=C/C(=O)CC(=O)/C=C/c2ccc(O)c(OC)c2)ccc1O here?
Its Activity is “Active”.

For COc1c(Br)cc(S(=O)(=O)N(C)C)c2ccc(C)nc12, which “apoptosis inhibition (active/inactive)” value (MOLT-4 [3]) is on record?
The value was “Active”.

What about the Activity (MOLT-4 [4]) of the same molecule?
Its Activity is “Toxic”.

Which results are given for CNS(=O)(=O)c1cc(S(=O)(=O)NC)c2ccc(C)nc2c1O?
Activity (MOLT-4 [1]): Active; inhibition [7]: inactive; Activity (Jurkat [8]): Non-toxic; Activity [9]: Not Active; Activity (MOLT-4 [4]): Non-toxic; Activity (Jurkat [10]): inactive; inhibition (MOLT-4 [11]): Active; Activity [12]: inactive; Activity (MOLT-4 [13]): Dose-dependent effect

With CCCNS(=O)(=O)c1cc(S(=O)(=O)NCCC)c2ccc(C)nc2c1O as the molecule, how does the Activity (MOLT-4 [4]) read?
The Activity was “Toxic”.

Which Activity (MOLT-4 [1]) does the source give for Cc1ccc2c(S(=O)(=O)N(C)C)cc(Br)c(O)c2n1 here?
Its Activity is “Active”.

And the Activity (MOLT-4 [4])?
The Activity was “Non-toxic”.

For CCOc1c(I)cc(S(=O)(=O)N(C)C)c2ccc(C)nc12, which Activity (MOLT-4 [4]) is on record?
The Activity was “Toxic”.

With c1ccc(CN(CCN(Cc2ccccn2)Cc2ccccn2)Cc2ccccn2)nc1 as the molecule, how does the Activity (MOLT-4 [2]) read?
The Activity was “Active”.

What does the source list for CCN(CC)S(=O)(=O)c1cc(S(=O)(=O)N(CC)CC)c2ccc(C)nc2c1OC?
apoptosis inhibition (active/inactive) (MOLT-4 [3]): Active; Activity (MOLT-4 [4]): Toxic

For VITAMIN E, which Activity (MOLT-4 [2]) is on record?
The Activity was “Active”.

With c1ccc(CNCCNCc2ccccn2)nc1 as the molecule, how does the Activity (MOLT-4 [2]) read?
Its Activity is “Active”.

What about the Activity [12] of the same molecule?
Its Activity is “Active”.

For Cc1ccc2c(S(=O)(=O)N(C)C)ccc(O)c2n1, which Activity (MOLT-4 [1]) is on record?
Its Activity is “Active”.

What about the Activity (MOLT-4 [4]) of the same molecule?
The Activity was “Non-toxic”.

For CNS(=O)(=O)c1cc(S(=O)(=O)NC)c2cccnc2c1O, which Activity (MOLT-4 [1]) is on record?
The Activity was “Active”.

And the Activity (MOLT-4 [2])?
The Activity was “inactive”.

And the Activity (MOLT-4 [13])?
Its Activity is “Dose-dependent effect”.

With Oc1ccc(Cl)c2ccccc12 as the molecule, how does the Activity (MOLT-4 [1]) read?
The Activity was “inactive”.

Which “apoptosis inhibition (active/inactive)” value (MOLT-4 [3]) does the source give for CCOc1c(S(=O)(=O)N(C)C)cc(S(=O)(=O)N(C)C)c2ccc(C)nc12 here?
The value was “Active”.

Which Activity (MOLT-4 [4]) does the source give for Oc1ccc(Cl)c2cccnc12 [CLOXYQUIN] here?
Its Activity is “Toxic”.

What about the Activity (MOLT-4 [2]) of the same molecule?
Its Activity is “Active”.

With CN(C)S(=O)(=O)c1cc(Br)c(O)c2ncccc12 as the molecule, how does the Activity (MOLT-4 [1]) read?
The Activity was “Active”.

For CCOc1ccc(S(=O)(=O)N(C)C)c2ccc(C)nc12, which “apoptosis inhibition (active/inactive)” value (MOLT-4 [3]) is on record?
Its value is “Active”.

For CCOc1c(Br)cc(S(=O)(=O)N(C)C)c2ccc(C)nc12, which Activity (MOLT-4 [4]) is on record?
The Activity was “Toxic”.

With c1ccc2ncccc2c1 as the molecule, how does the Activity (MOLT-4 [1]) read?
The Activity was “inactive”.

For CNS(=O)(=O)c1cc(S(=O)(=O)NC)c2ccc(C)nc2c1OC, which “apoptosis inhibition (active/inactive)” value (MOLT-4 [3]) is on record?
Its value is “Active”.

For COc1c(S(=O)(=O)N(C)C)cc(S(=O)(=O)N(C)C)c2ccc(C)nc12, which “apoptosis inhibition (active/inactive)” value (MOLT-4 [3]) is on record?
The value was “Active”.

And the inhibition [7]?
Its inhibition is “inactive”.

What about the Activity (Jurkat [8]) of the same molecule?
Its Activity is “Non-toxic”.

And the Activity [9]?
Its Activity is “Not Active”.

What about the Activity (MOLT-4 [4]) of the same molecule?
Its Activity is “Non-toxic”.

What about the Activity (Jurkat [10]) of the same molecule?
Its Activity is “inactive”.

And the inhibition (MOLT-4 [11])?
Its inhibition is “Active”.

And the Activity [12]?
Its Activity is “inactive”.
